Blank lines part the entries; values can stand above or below the compound they belong to.
Columns and labels:
EP4 receptor = EP4 receptor (Homo sapiens (Human), UniProt P35408); test: EP4 receptor binding assay (inhibition of [3H]PGE2 binding); settings: human recombinant Chem-1 cells, 1 nM [3H]PGE2, 2 hours @25° C.
Description: Transfected HEK 293(ebna) cells are maintained in culture and harvested, and membranes are prepared by differential centrifugation, following lysis of the cells in the presence of protease inhibitors, for use in receptor binding assays. Prostanoid receptor binding assays (for DP1, DP2 (CRTH2), EP1, EP2, EP3-III, EP4, FP, IP, and TP) are performed in 10 mM MES/KOH (pH 6.0) (EPs, FP and TP) or 10 mM HEPES/KOH (pH 7.4) (DPs and IP), containing 1 mM EDTA, 2.5-30 mM divalent cation and the appropriate radioligand that specifically binds to a target prostanoid receptor. Synthetic compounds are added in dimethyl sulfoxide which is kept constant at 1% (v/v) in all incubations. The reaction is initiated by addition of membrane protein. Non-specific binding is determined in the presence of 10 μM of the corresponding non-radioactive prostanoid. Incubations are conducted for 60-90 min at room temperature or 30° C. and terminated by rapid filtration. Compound binding is calculated as a % inhibition of the binding of the radioligand after subtracting nonspecific binding from total binding. The residual specific binding at each ligand concentration is calculated and expressed as a function of ligand concentration to construct sigmoidal concentration-response curve. Half maximal inhibitory concentration, IC50 values of compounds are determined by nonlinear regression analysis of the concentration-response curves using Hill equation curve fitting equation Y=D+[(A−D)/(1+C/IC50)^H], where Y=specific binding, A=left asymptote of the curve, D=right asymptote of the curve, C=compound concentration, and H=slope factor. The binding affinity of the compounds is determined by calculating the equilibrium inhibition constant (Ki) from the equation Ki═InPt/1+[radioligand]/Kd where Kd is the equilibrium dissociation constant for the radioligand: receptor interaction and InPt is the inflection point of the dose-response curves.
EP4 receptor binding assays were performed at MSD Pharma Service in Taiwan under the following assay conditions: • Source: Human recombinant Chem-1 cells • Ligand: 1 nM [^3H]

[1] = Rat pharmacokinetic (PK) assay; assay type: in vivo, Sprague-Dawley rat
Description: Test compound was dissolved in 10% DMSO, 40% PEG-400, and 50% water for intravenous (i.v.) and oral (p.o.) administration to rat. […] Three male animals received single p.o. doses by gavage tube (5 mg/kg). Blood samples were collected into K2-EDTA tubes from the jugular vein at 0.083, 0.25, 0.5, 1, 2, 4, 8, and 24 h post dosing. After centrifugation, plasma samples were prepared via protein precipitation and detected through LC-MS/MS. The pharmacokinetics parameters were calculated using Phoenix software V 8.3.4.

[2] = Liver microsomal stability, human; assay type: in vitro ADME; settings: pooled human liver microsomes; for microsomal CLint: read-out: In vitro CLint; for half-life: read-out: In vitro T1/2; for CLint scaled: read-out: Scale-up CLint
Description: (§1) Microsomal stability assay is performed to understand the metabolism of the representative compounds.
(§2) In vitro microsomal stability was determined in pooled human, dog, rat, and mouse liver microsomes. Test compounds (Table 2) were incubated in the presence and absence of NADPH for 0-60 min and the amount of remaining compound was quantified through LC-MS/MS analysis.

[3] = Liver microsomal stability, mouse; assay type: in vitro ADME; settings: pooled mouse liver microsomes; for microsomal CLint: read-out: In vitro CLint; for half-life: read-out: In vitro T1/2; for CLint scaled: read-out: Scale-up CLint
Description: as §1, §2

[4] = Liver microsomal stability, rat; assay type: in vitro ADME; settings: pooled rat liver microsomes; for microsomal CLint: read-out: In vitro CLint; for half-life: read-out: In vitro T1/2; for CLint scaled: read-out: Scale-up CLint
Description: as §1, §2

[5] = Liver microsomal stability, dog; assay type: in vitro ADME; settings: pooled dog liver microsomes; for microsomal CLint: read-out: In vitro CLint; for half-life: read-out: In vitro T1/2; for CLint scaled: read-out: Scale-up CLint
Description: as §1, §2

[6] = male, Sprague-Dawley, plasma, Rat iv, dose 5 mg/kg (table)
[7] = male, Sprague-Dawley, plasma, Rat po, dose 10 mg/kg (table)

Sequence of EP4 receptor (P35408 whole entry): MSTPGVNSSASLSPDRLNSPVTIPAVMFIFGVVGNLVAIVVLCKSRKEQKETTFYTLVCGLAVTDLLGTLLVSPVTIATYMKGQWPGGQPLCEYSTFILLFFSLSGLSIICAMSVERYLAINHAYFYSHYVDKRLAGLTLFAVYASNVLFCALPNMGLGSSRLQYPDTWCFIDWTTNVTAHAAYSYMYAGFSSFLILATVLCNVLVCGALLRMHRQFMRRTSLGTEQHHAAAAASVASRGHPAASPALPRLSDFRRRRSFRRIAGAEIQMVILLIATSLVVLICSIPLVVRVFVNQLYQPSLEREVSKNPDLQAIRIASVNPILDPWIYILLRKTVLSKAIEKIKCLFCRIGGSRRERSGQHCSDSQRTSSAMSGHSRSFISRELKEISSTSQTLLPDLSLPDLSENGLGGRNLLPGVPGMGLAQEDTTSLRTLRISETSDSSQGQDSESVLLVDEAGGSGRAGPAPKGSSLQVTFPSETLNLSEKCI

Compound: O=C(NC1(C23CC(C(=O)O)(C2)C3)CC1)c1c(Cl)sc2ccn(Cc3ccc(C(F)(F)F)cc3)c12 [Example 5, 3-[1-[[2-chloro-4-[[4-(trifluoromethyl)phenyl]methyl]thieno[3,2-b]pyrrole-3-carbonyl]amino]cyclopropyl]bicyclo[1.1.1]pentane-1-carboxylic acid]
- IC50 (EP4 receptor): 28 nM

Compound: 3-[1-[[2-methyl-4-[[4-(trifluoromethyl)phenyl]methyl]thieno[3,2-b]pyrrole-3-carbonyl]amino]ethyl]bicyclo[1.1.1]pentane-1-carboxylic acid [Example 10]
- IC50 (EP4 receptor): 620 nM

Compound: O=C(O)c1ccc(C2(NC(=O)c3c(Cl)sc4ccn(Cc5ccc(C(F)(F)F)cc5)c34)CC2)cc1 [Example 1, 4-[1-[[2-chloro-4-[[4-(trifluoromethyl)phenyl]methyl]thieno[3,2-b]pyrrole-3-carbonyl]amino]cyclopropyl]benzoic acid]
- CL_obs ([1]; Rat iv, dose 5 mg/kg (table)): 2.57 mL/min/kg
- Vss_obs ([1]; Rat iv, dose 5 mg/kg (table)): 1.64 L/kg
- AUC(0-inf) [1, 6]: 33600 ng·h/mL
- AUC(0-t) [1, 6]: 27700 ng·h/mL
- C0 [1, 6]: 8380 ng/mL
- MRT [1, 6]: 5.93 h
- half-life [1, 6]: 9.47 h
- AUC(0-inf) [1, 7]: 26700 ng·h/mL
- AUC(0-t) [1, 7]: 23400 ng·h/mL
- Cmax [1, 7]: 1830 ng/mL
- MRT [1, 7]: 7.98 h
- Tmax [1, 7]: 6.67 h
- half-life [1, 7]: 8.97 h
- bioavailability ([1]; male, Sprague-Dawley, plasma, Rat po, dose 10 mg/kg vs iv 5 mg/kg (table)): 42.3%
- microsomal CLint [2]: 11.4 µL/min/mg
- half-life [2]: 2.03 h
- CLint scaled [2]: 14.3 mL/min/kg
- IC50 (EP4 receptor): 0.25 nM
- microsomal CLint [3]: 15 µL/min/mg
- half-life [3]: 1.54 h
- CLint scaled [3]: 66.1 mL/min/kg
- microsomal CLint [4]: 13.4 µL/min/mg
- half-life [4]: 1.73 h
- CLint scaled [4]: 24 mL/min/kg
- microsomal CLint [5]: 9.89 µL/min/mg
- half-life [5]: 2.33 h
- CLint scaled [5]: 24.6 mL/min/kg

Compound: O=C(NC1(C23CCC(C(=O)O)(CC2)CC3)CC1)c1c(Cl)sc2ccn(Cc3ccc(C(F)(F)F)cc3)c12 [Example 6, 4-[1-[[2-chloro-4-[[4-(trifluoromethyl)phenyl]methyl]thieno[3,2-b]pyrrole-3-carbonyl]amino]cyclopropyl]bicyclo[2.2.2]octane-1-carboxylic acid]
- IC50 (EP4 receptor): 8.4 nM

Compound: O=C(O)c1ccc(C2(NC(=O)c3c(CO)sc4ccn(Cc5ccc(C(F)(F)F)cc5)c34)CC2)cc1 [Example 2, 4-[1-[[2-(hydroxymethyl)-4-[[4-(trifluoromethyl)phenyl]methyl]thieno[3,2-b]pyrrole-3-carbonyl]amino]cyclopropyl]benzoic acid]
- IC50 (EP4 receptor): 1.1 nM

Compound: O=C(O)c1ccc(C2(NC(=O)c3c(F)sc4ccn(Cc5ccc(C(F)(F)F)cc5)c34)CC2)cc1 [Example 3, 4-(1-(2-fluoro-4-(4-(trifluoromethyl)benzyl)-4H-thieno[3,2-b]pyrrole-3-carboxamido)cyclopropyl)benzoic acid]
- microsomal CLint [2]: 4.03 µL/min/mg
- half-life [2]: 5.73 h
- CLint scaled [2]: 5.05 mL/min/kg
- IC50 (EP4 receptor): 0.48 nM
- microsomal CLint [3]: 6.85 µL/min/mg
- half-life [3]: 3.37 h
- CLint scaled [3]: 30.1 mL/min/kg
- microsomal CLint [4]: 8.4 µL/min/mg
- half-life [4]: 2.75 h
- CLint scaled [4]: 15 mL/min/kg
- microsomal CLint [5]: 3.2 µL/min/mg
- half-life [5]: 7.23 h
- CLint scaled [5]: 7.97 mL/min/kg

Compound: COc1sc2ccn(Cc3ccc(C(F)(F)F)cc3)c2c1C(=O)NC1(c2ccc(C(=O)O)cc2)CC1 [Example 4, 4-(1-(2-methoxy-4-(4-(trifluoromethyl)benzyl)-4H-thieno[3,2-b]pyrrole-3-carboxamido)cyclopropyl)benzoic acid]
- microsomal CLint [2]: 3.24 µL/min/mg
- half-life [2]: 7.13 h
- CLint scaled [2]: 4.06 mL/min/kg
- IC50 (EP4 receptor): 0.35 nM
- microsomal CLint [3]: 10.6 µL/min/mg
- half-life [3]: 2.18 h
- CLint scaled [3]: 46.7 mL/min/kg
- microsomal CLint [4]: 11.1 µL/min/mg
- half-life [4]: 2.08 h
- CLint scaled [4]: 19.8 mL/min/kg
- microsomal CLint [5]: 6.06 µL/min/mg
- half-life [5]: 3.82 h
- CLint scaled [5]: 15.1 mL/min/kg

The next lines start with the values.

- IC50 (EP4 receptor): 180 nM
Compound: CC(NC(=O)c1c(Cl)sc2ccn(Cc3ccc(C(F)(F)F)cc3)c12)C12CC(C(=O)O)(C1)C2 (stereo not shown) [Example 9, 3-[1-[[2-chloro-4-[[4-(trifluoromethyl)phenyl]methyl]thieno[3,2-b]pyrrole-3-carbonyl]amino]ethyl]bicyclo[1.1.1]pentane-1-carboxylic acid]

- IC50 (EP4 receptor): 50 nM
Compound: Cc1sc2ccn(Cc3ccc(C(F)(F)F)cc3)c2c1C(=O)NC1(C23CC(C(=O)O)(C2)C3)CC1 [Example 7, 3-[1-[[2-methyl-4-[[4-(trifluoromethyl)phenyl]methyl]thieno[3,2-b]pyrrole-3-carbonyl]amino]cyclopropyl]bicyclo[1.1.1]pentane-1-carboxylic acid]

- IC50 (EP4 receptor): 4.9 nM
Compound: Cc1sc2ccn(Cc3ccc(C(F)(F)F)cc3)c2c1C(=O)NC1(C23CCC(C(=O)O)(CC2)CC3)CC1 [Example 8, 4-[1-[[2-methyl-4-[[4-(trifluoromethyl)phenyl]methyl]thieno[3,2-b]pyrrole-3-carbonyl]amino]cyclopropyl]bicyclo[2.2.2]octane-1-carboxylic acid]

- IC50 (EP4 receptor): 1.2 nM
Compound: O=C(O)c1ccc(C2(NC(=O)c3c(C(F)(F)F)sc4ccn(Cc5ccc(C(F)(F)F)cc5)c34)CC2)cc1 [Example 11, 4-(1-(2-(trifluoromethyl)-4-(4-(trifluoromethyl)benzyl)-4H-thieno[3,2-b]pyrrole-3-carboxamido)cyclopropyl)benzoic acid]
